The record followed here is PubChem BioAssay (NCI).

Some test systems named below: A549 NSCLC; BT-549 breast; PC-3 prostate; HCT-15 colon; SK-MEL-5 melanoma; SF-539 CNS; OVCAR-8 ovarian; SNB-19 CNS.
What all share (assay): growth of human tumour cells (NCI), 48 h

Molecules are shown by their SMILES.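 The compound was tested at five concentrations on cells cultured in 96-well plates, with a 48-hour exposure period. At the GI50, growth is halved. Definition used: TGI = concentration required for complete inhibition of growth.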

With `CC(C)[C@@H]1NC(=O)[C@]2(C)CSC(=N2)c2ccnc(c2)CNC(=O)C[C@@H](/C=C/CCS)OC1=O`, the GI50 was 0.0635 µM with A549 NSCLC; 0.718 µM with BT-549 breast; 0.0669 µM in the assay with PC-3 prostate; 9.1 µM in the assay on HCT-15 colon; 0.0715 µM in the assay on SK-MEL-5 melanoma; 0.0832 µM in the assay on SF-539 CNS. For the same compound, the values for the GI50 in the assay on OVCAR-8 ovarian and with SNB-19 CNS were 0.128 µM and 0.283 µM, respectively. Also, the TGI is 1.33 µM in the assay with A549 NSCLC; over 100 µM with BT-549 breast; over 100 µM with PC-3 prostate; over 100 µM in the assay on HCT-15 colon; 0.323 µM in the assay on SK-MEL-5 melanoma; over 65.5 µM in the assay with SF-539 CNS. Moreover, the TGI in the assay on OVCAR-8 ovarian is over 100 µM; with SNB-19 CNS, over 39.4 µM.
Regarding `O=[N+]([O-])c1cc([N+](=O)[O-])c(C(F)(F)F)cc1NN=C(c1ccc(O)cc1)c1ccc(O)cc1`, the GI50 in the assay with A549 NSCLC is 2.98 µM; with BT-549 breast, 5 µM; in the assay with PC-3 prostate, 3.11 µM; in the assay on HCT-15 colon, 2.84 µM; in the assay with SK-MEL-5 melanoma it was 1.64 µM; in the assay with SF-539 CNS, 2.01 µM. The GI50 is 4.2 µM with OVCAR-8 ovarian and 4.67 µM in the assay on SNB-19 CNS. Besides, the TGI in the assay with A549 NSCLC is 14.5 µM; with BT-549 breast, 42.8 µM; in the assay on PC-3 prostate it was 78 µM; with HCT-15 colon, 11.7 µM; with SK-MEL-5 melanoma, 3 µM; in the assay on SF-539 CNS, 4.45 µM. For the same compound, the TGI in the assay with OVCAR-8 ovarian was over 100 µM; in the assay on SNB-19 CNS it was 16.6 µM.
For `CN1CCN(c2ccc(Nc3ncc(Cl)c(NC[C@@H]4CCCO4)n3)cc2)CC1`, the GI50 was 1.05 µM with A549 NSCLC; 2.24 µM in the assay with BT-549 breast; 2.24 µM in the assay with PC-3 prostate; 2.04 µM with HCT-15 colon; 2.52 µM with SK-MEL-5 melanoma; 1.52 µM in the assay on SF-539 CNS. Further, the GI50 in the assay with OVCAR-8 ovarian was 4.02 µM; in the assay on SNB-19 CNS, 3.69 µM. Further, the TGI with A549 NSCLC is 5.5 µM; in the assay with BT-549 breast, 6.94 µM; with PC-3 prostate it was over 100 µM; with HCT-15 colon it was over 100 µM; in the assay on SK-MEL-5 melanoma, 13.6 µM; with SF-539 CNS, 4.22 µM. The TGI in the assay with OVCAR-8 ovarian and in the assay with SNB-19 CNS was over 100 µM each time.
`C[C@@H]1CC[C@H]2C(C)(C)[C@H]3C[C@@]12CC[C@@]3(C)O`: the TGI with A549 NSCLC, in the assay with BT-549 breast, with PC-3 prostate, in the assay with HCT-15 colon, with SK-MEL-5 melanoma and in the assay with SF-539 CNS was over 100 µM in each case. Besides, the TGI with OVCAR-8 ovarian and with SNB-19 CNS was over 100 µM throughout.
Turning to `CC(=O)OCc1ccc2c(c1)C(O)NC(=O)O2` (stereo not given), the TGI in the assay with A549 NSCLC, with BT-549 breast, in the assay on PC-3 prostate, in the assay on HCT-15 colon, in the assay on SK-MEL-5 melanoma and with SF-539 CNS was over 100 µM each time. For the same compound, the TGI in the assay on OVCAR-8 ovarian and in the assay on SNB-19 CNS was over 100 µM each time.
For `CC(=C(c1ccc(OCCN2CCCCC2)cc1)c1ccc(OCCN2CCCCC2)cc1)c1ccc(Cl)cc1`, the GI50 is 0.457 µM in the assay with A549 NSCLC; 0.414 µM with BT-549 breast; 0.412 µM in the assay on PC-3 prostate; 0.34 µM with HCT-15 colon; 0.443 µM in the assay with SK-MEL-5 melanoma; 0.393 µM with SF-539 CNS. The GI50 was 0.484 µM in the assay with OVCAR-8 ovarian and 0.438 µM with SNB-19 CNS. The TGI in the assay on A549 NSCLC was found to be 0.914 µM; in the assay with BT-549 breast, 0.787 µM; in the assay with PC-3 prostate it was 0.825 µM; in the assay with HCT-15 colon, 0.685 µM; in the assay on SK-MEL-5 melanoma, 0.793 µM; with SF-539 CNS it was 0.738 µM. In addition, the TGI in the assay with OVCAR-8 ovarian was determined as 1.04 µM; in the assay with SNB-19 CNS, 0.81 µM.
As for `CC(=O)OC1(C)N=NC2(CCCCC2)O1` (stereo not given), the TGI with A549 NSCLC, in the assay with BT-549 breast, in the assay on PC-3 prostate, in the assay with HCT-15 colon, in the assay with SK-MEL-5 melanoma and in the assay with SF-539 CNS was over 100 µM each time. For the same compound, the TGI with OVCAR-8 ovarian and in the assay on SNB-19 CNS was over 100 µM in each case.
Consider `C=C(C)C12OC1[C@@]1(C)C(=CC2=O)CCC(O)[C@@H]1C` (stereo not given in full), for which the TGI in the assay on A549 NSCLC was 20.3 µM; in the assay with BT-549 breast it was 50.8 µM; in the assay with PC-3 prostate, 27.8 µM; in the assay on HCT-15 colon, over 100 µM; with SK-MEL-5 melanoma, 36.7 µM; in the assay on SF-539 CNS it was 15.8 µM. Further, the TGI was 8.24 µM with OVCAR-8 ovarian and 33.2 µM in the assay with SNB-19 CNS.
`O=C1NC(=NCc2ccccc2)S/C1=C\c1ccc2ncccc2c1`: the GI50 with A549 NSCLC is 24.6 µM; in the assay with BT-549 breast, over 25 µM; in the assay with PC-3 prostate, over 25 µM; in the assay on HCT-15 colon, over 25 µM; in the assay with SK-MEL-5 melanoma, over 25 µM; in the assay on SF-539 CNS, over 25 µM. In addition, the GI50 with OVCAR-8 ovarian and in the assay with SNB-19 CNS was over 25 µM in each case. Also, the TGI in the assay on A549 NSCLC, with BT-549 breast, with PC-3 prostate, in the assay on HCT-15 colon, in the assay with SK-MEL-5 melanoma and in the assay with SF-539 CNS was over 25 µM each time. The TGI with OVCAR-8 ovarian and in the assay on SNB-19 CNS was over 25 µM each time.
With `Cc1cc2c(cc1C)[n+](=O)c(C(=O)c1ccccc1)c(C(F)F)n2[O-]`, the GI50 in the assay with A549 NSCLC is 4.9 µM; in the assay with BT-549 breast, 14.2 µM; in the assay with PC-3 prostate, 16.1 µM; with HCT-15 colon, 6.76 µM; in the assay with SK-MEL-5 melanoma, 9.3 µM; with SF-539 CNS it was 18.4 µM. The figures for the GI50 in the assay with OVCAR-8 ovarian and with SNB-19 CNS were 7.11 µM and 44.2 µM, respectively. The TGI was 27.4 µM in the assay with A549 NSCLC; 65.3 µM in the assay on BT-549 breast; over 100 µM in the assay with PC-3 prostate; over 100 µM with HCT-15 colon; 25 µM in the assay on SK-MEL-5 melanoma; 72.5 µM with SF-539 CNS. In addition, the TGI in the assay with OVCAR-8 ovarian and in the assay on SNB-19 CNS was over 100 µM throughout.
With `c1ccc(-c2n(Cc3ccc4ccccc4n3)cc[n+]2Cc2ccc3ccccc3c2)cc1`, the GI50 with A549 NSCLC is 2.91 µM; in the assay on BT-549 breast, 1.63 µM; with PC-3 prostate, 1.31 µM; with HCT-15 colon it was 5.21 µM; in the assay with SK-MEL-5 melanoma, 0.538 µM; in the assay with SF-539 CNS, 1.45 µM. Further, the GI50 in the assay with OVCAR-8 ovarian is 1.63 µM; with SNB-19 CNS, 0.865 µM. The TGI turned out to be 12.1 µM in the assay with A549 NSCLC; 3.7 µM in the assay with BT-549 breast; 5.51 µM in the assay with PC-3 prostate; 17.9 µM with HCT-15 colon; 1.55 µM with SK-MEL-5 melanoma; 4.64 µM with SF-539 CNS. For the same compound, the TGI with OVCAR-8 ovarian was found to be 4.4 µM; in the assay with SNB-19 CNS it was 3.54 µM.
In the case of `CC(=O)Nc1cc2ccc(=O)oc2cc1Cl`, the TGI in the assay with A549 NSCLC, in the assay with BT-549 breast, in the assay with PC-3 prostate, with HCT-15 colon, with SK-MEL-5 melanoma and with SF-539 CNS was over 100 µM throughout. The TGI with OVCAR-8 ovarian and in the assay with SNB-19 CNS was over 100 µM each time.
Turning to `O=C(Nc1nn2c(-c3cc(C(F)(F)F)cc(C(F)(F)F)c3)nnc2s1)C1CCCC1`, the GI50 was 1.08 µM in the assay with A549 NSCLC; 0.796 µM in the assay on BT-549 breast; 0.603 µM in the assay with PC-3 prostate; 0.665 µM in the assay with HCT-15 colon; 0.251 µM with SK-MEL-5 melanoma; 0.981 µM in the assay on SF-539 CNS. For the same compound, the results for the GI50 in the assay with OVCAR-8 ovarian and in the assay on SNB-19 CNS were 1.18 µM and 0.614 µM, respectively. Also, the TGI is over 100 µM in the assay with A549 NSCLC; over 74.7 µM in the assay on BT-549 breast; over 100 µM with PC-3 prostate; over 100 µM in the assay on HCT-15 colon; 1.74 µM with SK-MEL-5 melanoma; over 100 µM in the assay on SF-539 CNS. Further, the TGI in the assay with OVCAR-8 ovarian and in the assay on SNB-19 CNS was over 100 µM each time.
For the compound `C=C1C(=O)O[C@H]2[C@H]1CC/C(CNC(=O)c1cc3ccccc3[nH]1)=C\CC[C@@]1(C)O[C@@H]21`, the GI50 in the assay on A549 NSCLC is 4.39 µM; with BT-549 breast, 1.69 µM; in the assay on PC-3 prostate it was 2.03 µM; in the assay with HCT-15 colon, 0.439 µM; in the assay on SK-MEL-5 melanoma, 1.72 µM; in the assay on SF-539 CNS it was 1.61 µM. In addition, the GI50 with OVCAR-8 ovarian was 2.08 µM; in the assay with SNB-19 CNS, 7.73 µM. The TGI in the assay with A549 NSCLC came to 15.7 µM; with BT-549 breast it was 3.34 µM; in the assay on PC-3 prostate it was 4.78 µM; in the assay on HCT-15 colon, 1.72 µM; in the assay on SK-MEL-5 melanoma, 3.65 µM; in the assay with SF-539 CNS, 3.16 µM. Moreover, the TGI amounted to 5.87 µM in the assay with OVCAR-8 ovarian and 23 µM with SNB-19 CNS.
Take `CCOC(=O)n1cc(C2=C(c3ccc(OC)c(OC)c3)COC2=O)c2ccccc21`: the GI50 in the assay on A549 NSCLC was 0.11 µM; in the assay with BT-549 breast it was 0.105 µM; in the assay with PC-3 prostate it was 0.0404 µM; in the assay on HCT-15 colon, 0.0408 µM; in the assay with SK-MEL-5 melanoma, 0.041 µM; with SF-539 CNS, 0.031 µM. Also, the GI50 is 0.0954 µM with OVCAR-8 ovarian and 0.0551 µM in the assay with SNB-19 CNS. The TGI in the assay on A549 NSCLC is over 100 µM; in the assay with BT-549 breast, 22.6 µM; in the assay on PC-3 prostate, over 100 µM; with HCT-15 colon, over 100 µM; in the assay with SK-MEL-5 melanoma, 0.48 µM; in the assay on SF-539 CNS, 0.156 µM. In addition, the TGI with OVCAR-8 ovarian and in the assay on SNB-19 CNS was over 100 µM each time.
